From ChEMBL document CHEMBL1201862, “PubChem BioAssay data set” (2004)
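These data come from cells grown in 96-well plates and exposed to compound for 48 hours at five concentrations. Here, GI50 denotes the concentration required for 50% inhibition of growth.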 Activity calls are given as the source filed them. Cut-off read from the data, not from the text of the source: active = GI50 up to about 1.1 µM and inactive = higher.

How the values were obtained:
Assay in all cases: NCI-60 cell line screen, 48 h
PC-3 = system: PC-3
Malme-3M = system: Malme-3M
EKVX = system: EKVX
HCT-15 = system: HCT-15
CAKI-1 = system: CAKI-1
K562 = system: K562
MOLT-4 = system: MOLT-4
DU-145 = system: DU-145
786-0 = system: 786-0
A498 = system: A498
COLO 205 = system: COLO 205
HOP-62 = system: HOP-62
MDA-MB-435 = system: MDA-MB-435
HCT-116 = system: HCT-116
NCI-H226 = system: NCI-H226
NCI-H460 = system: NCI-H460
LOX IMVI = system: LOX IMVI
CCRF-CEM = system: CCRF-CEM
SK-MEL-5 = system: SK-MEL-5
SK-MEL-2 = system: SK-MEL-2
HCC 2998 = system: HCC 2998
RXF 393 = system: RXF 393
M14 = system: M14
HT-29 = system: HT-29
SNB-19 = system: SNB-19
HOP-92 = system: HOP-92
SF-268 = system: SF-268
NCI-H23 = system: NCI-H23
SK-OV-3 = system: SK-OV-3
SR = system: SR
OVCAR-5 = system: OVCAR-5
MDA-N = system: MDA-N
UACC-62 = system: UACC-62
SK-MEL-28 = system: SK-MEL-28
MDA-MB-231 = system: MDA-MB-231
IGROV-1 = system: IGROV-1
BT-549 = system: BT-549
NCI/ADR-RES = system: NCI/ADR-RES
SN12C = system: SN12C
Hs-578T = system: Hs-578T
UACC-257 = system: UACC-257
A549 = system: A549
OVCAR-8 = system: OVCAR-8
NCI-H522 = system: NCI-H522
OVCAR-4 = system: OVCAR-4
ACHN = system: ACHN
MCF7 = system: MCF7
KM12 = system: KM12
T47D = system: T47D
HL-60 = system: HL-60
SNB-75 = system: SNB-75
RPMI-8226 = system: RPMI-8226
U-251 = system: U-251
SF-539 = system: SF-539
OVCAR-3 = system: OVCAR-3
SW-620 = system: SW-620
UO-31 = system: UO-31
SF-295 = system: SF-295
TK-10 = system: TK-10

`CCCCCCc1cc2cc(C(=O)NCc3ccccc3)c(=N)oc2cc1O` was tested, and the GI50 (PC-3) was > 100 µM (inactive), the GI50 (Malme-3M) was > 100 µM (inactive) and the GI50 (EKVX) was > 100 µM (inactive). For the same compound, the GI50 (HCT-15) was > 100 µM, the GI50 (CAKI-1) was > 100 µM (inactive) and the GI50 (K562) was > 100 µM (inactive). For the same compound, the GI50 (MOLT-4) was > 100 µM (inactive), the GI50 (DU-145) was > 100 µM (inactive) and the GI50 (786-0) was > 100 µM (inactive). The GI50 (A498) was > 100 µM (inactive), the GI50 (COLO 205) was > 100 µM (inactive) and the GI50 (HOP-62) was > 100 µM (inactive). The GI50 (MDA-MB-435) was > 100 µM (inactive), the GI50 (HCT-116) was > 100 µM (inactive) and the GI50 (NCI-H226) was > 100 µM (inactive). For the same compound, the GI50 (NCI-H460) was > 100 µM (inactive), the GI50 (LOX IMVI) was > 100 µM (inactive) and the GI50 (CCRF-CEM) was > 100 µM (inactive). The GI50 (SK-MEL-5) was > 100 µM (inactive), the GI50 (SK-MEL-2) was > 100 µM (inactive) and the GI50 (HCC 2998) was > 100 µM (inactive). The GI50 (RXF 393) was > 100 µM (inactive), the GI50 (M14) was > 100 µM (inactive) and the GI50 (HT-29) was > 100 µM (inactive). For the same compound, the GI50 (SNB-19) was > 100 µM (inactive), the GI50 (HOP-92) was > 100 µM (inactive) and the GI50 (SF-268) was > 100 µM (inactive). For the same compound, the GI50 (NCI-H23) was > 100 µM (inactive), the GI50 (SK-OV-3) was > 100 µM (inactive) and the GI50 (SR) was > 100 µM (inactive). For the same compound, the GI50 (OVCAR-5) was > 100 µM (inactive), the GI50 (MDA-N) was > 100 µM (inactive) and the GI50 (UACC-62) was > 100 µM (inactive). For the same compound, the GI50 (SK-MEL-28) was > 100 µM (inactive), the GI50 (MDA-MB-231) was > 100 µM (inactive) and the GI50 (IGROV-1) was > 100 µM (inactive). The GI50 (BT-549) was > 100 µM (inactive), the GI50 (NCI/ADR-RES) was > 100 µM (inactive) and the GI50 (SN12C) was > 100 µM (inactive). The GI50 (Hs-578T) was > 100 µM (inactive), the GI50 (UACC-257) was > 100 µM (inactive) and the GI50 (A549) was > 100 µM (inactive). The GI50 (OVCAR-8) was > 100 µM (inactive), the GI50 (NCI-H522) was > 100 µM (inactive) and the GI50 (OVCAR-4) was > 100 µM (inactive). For the same compound, the GI50 (ACHN) was > 100 µM (inactive), the GI50 (MCF7) was > 100 µM (inactive) and the GI50 (KM12) was > 100 µM (inactive). The GI50 (T47D) was > 100 µM (inactive), the GI50 (HL-60) was > 100 µM (inactive) and the GI50 (SNB-75) was > 100 µM (inactive). For the same compound, the GI50 (RPMI-8226) was > 100 µM (inactive), the GI50 (U-251) was > 100 µM (inactive) and the GI50 (SF-539) was > 100 µM (inactive). For the same compound, the GI50 (OVCAR-3) was > 100 µM (inactive) and the GI50 (SW-620) was > 100 µM (inactive).

For `O=C1NCCN1/N=C/c1c(Cl)n(-c2ccccc2)c2ccccc12`, the GI50 (PC-3) was 29 µM (inactive), the GI50 (Malme-3M) was 16.6 µM (inactive) and the GI50 (EKVX) was 25.5 µM (inactive). The GI50 (HCT-15) was 17.6 µM, the GI50 (CAKI-1) was 17.3 µM (inactive) and the GI50 (K562) was 24.5 µM (inactive). The GI50 (MOLT-4) was 36.9 µM (inactive), the GI50 (DU-145) was 14.6 µM (inactive) and the GI50 (786-0) was 26.1 µM (inactive). For the same compound, the GI50 (A498) was 17.5 µM (inactive), the GI50 (COLO 205) was 14.3 µM (inactive) and the GI50 (HOP-62) was 94.4 µM (inactive). The GI50 (MDA-MB-435) was 12.4 µM (inactive), the GI50 (HCT-116) was 19.5 µM (inactive) and the GI50 (NCI-H226) was 20.4 µM (inactive). The GI50 (LOX IMVI) was 13.5 µM (inactive), the GI50 (CCRF-CEM) was 29 µM (inactive) and the GI50 (UO-31) was 19.1 µM (inactive). The GI50 (SK-MEL-5) was 15.5 µM (inactive), the GI50 (SK-MEL-2) was 25 µM (inactive) and the GI50 (HCC 2998) was 17.8 µM (inactive). For the same compound, the GI50 (RXF 393) was > 10 µM (inactive), the GI50 (SF-295) was 29.4 µM (inactive) and the GI50 (M14) was 17.5 µM (inactive). The GI50 (HT-29) was 17.4 µM (inactive), the GI50 (SNB-19) was 23.1 µM (inactive) and the GI50 (HOP-92) was 23.6 µM (inactive). For the same compound, the GI50 (SF-268) was 20.1 µM (inactive), the GI50 (NCI-H23) was 18.5 µM (inactive) and the GI50 (SK-OV-3) was 46.2 µM (inactive). The GI50 (SR) was 28 µM (inactive), the GI50 (OVCAR-5) was 44.1 µM (inactive) and the GI50 (MDA-N) was 9.25 µM (inactive). The GI50 (UACC-62) was 16 µM (inactive), the GI50 (MDA-MB-231) was 13.6 µM (inactive) and the GI50 (IGROV-1) was 17.2 µM (inactive). The GI50 (BT-549) was 15.4 µM (inactive), the GI50 (NCI/ADR-RES) was 19.5 µM (inactive) and the GI50 (SN12C) was 18.7 µM (inactive). For the same compound, the GI50 (Hs-578T) was 13.4 µM (inactive), the GI50 (UACC-257) was 22.4 µM (inactive) and the GI50 (A549) was 23.9 µM (inactive). The GI50 (OVCAR-8) was 22.3 µM (inactive), the GI50 (NCI-H522) was 16.1 µM (inactive) and the GI50 (OVCAR-4) was 48.1 µM (inactive). For the same compound, the GI50 (ACHN) was 23.9 µM (inactive), the GI50 (MCF7) was 22.1 µM (inactive) and the GI50 (KM12) was 15.7 µM (inactive). For the same compound, the GI50 (T47D) was 15.2 µM (inactive), the GI50 (HL-60) was 27.4 µM (inactive) and the GI50 (SNB-75) was 21.1 µM (inactive). The GI50 (RPMI-8226) was 22.4 µM (inactive), the GI50 (U-251) was 21.7 µM (inactive) and the GI50 (SF-539) was 10.4 µM (inactive). For the same compound, the GI50 (OVCAR-3) was 66.4 µM (inactive), the GI50 (TK-10) was 14.8 µM (inactive) and the GI50 (SW-620) was 21.1 µM (inactive).

In the case of `COc1cc2oc3ccccc3c(=O)c2cc1CSc1ccccc1N`, the GI50 (PC-3) is reported as 14.5 µM (inactive), the GI50 (Malme-3M) is reported as 18.6 µM (inactive) and the GI50 (EKVX) is reported as 24.1 µM (inactive). For the same compound, the GI50 (HCT-15) was 6.95 µM, the GI50 (CAKI-1) was 35.9 µM (inactive) and the GI50 (K562) was 3.91 µM (inactive). For the same compound, the GI50 (MOLT-4) was 4.83 µM (inactive), the GI50 (DU-145) was 21.1 µM (inactive) and the GI50 (786-0) was 35.9 µM (inactive). The GI50 (A498) was 17.3 µM (inactive), the GI50 (COLO 205) was 15.8 µM (inactive) and the GI50 (HOP-62) was 22.8 µM (inactive). The GI50 (MDA-MB-435) was 2.47 µM (inactive), the GI50 (HCT-116) was 19.5 µM (inactive) and the GI50 (NCI-H226) was 73.6 µM (inactive). For the same compound, the GI50 (NCI-H460) was 15.1 µM (inactive), the GI50 (LOX IMVI) was 29.7 µM (inactive) and the GI50 (CCRF-CEM) was 4.94 µM (inactive). The GI50 (SK-MEL-5) was 13.5 µM (inactive), the GI50 (SK-MEL-2) was 6.95 µM (inactive) and the GI50 (HCC 2998) was 5.24 µM (inactive). For the same compound, the GI50 (RXF 393) was 11 µM (inactive), the GI50 (SF-295) was 14.2 µM (inactive) and the GI50 (M14) was 23.2 µM (inactive). For the same compound, the GI50 (HT-29) was 18.7 µM (inactive), the GI50 (SNB-19) was 56.5 µM (inactive) and the GI50 (HOP-92) was 35.2 µM (inactive). For the same compound, the GI50 (SF-268) was 41.1 µM (inactive), the GI50 (NCI-H23) was 29.9 µM (inactive) and the GI50 (SK-OV-3) was 28 µM (inactive). For the same compound, the GI50 (SR) was 5.2 µM (inactive), the GI50 (OVCAR-5) was > 81.8 µM (inactive) and the GI50 (MDA-N) was 3.27 µM (inactive). The GI50 (UACC-62) was 9.71 µM (inactive), the GI50 (SK-MEL-28) was 18.7 µM (inactive) and the GI50 (MDA-MB-231) was 27.7 µM (inactive). For the same compound, the GI50 (IGROV-1) was 12 µM (inactive), the GI50 (BT-549) was 29.3 µM (inactive) and the GI50 (NCI/ADR-RES) was 6.5 µM (inactive). The GI50 (SN12C) was 46.8 µM (inactive), the GI50 (Hs-578T) was 36 µM (inactive) and the GI50 (UACC-257) was 47.5 µM (inactive). The GI50 (A549) was 23.4 µM (inactive), the GI50 (OVCAR-8) was 33.5 µM (inactive) and the GI50 (NCI-H522) was 8.89 µM (inactive). The GI50 (OVCAR-4) was 13.6 µM (inactive), the GI50 (ACHN) was 19.5 µM (inactive) and the GI50 (MCF7) was 13.6 µM (inactive). The GI50 (KM12) was 4.62 µM (inactive), the GI50 (T47D) was 7.85 µM (inactive) and the GI50 (HL-60) was 3.83 µM (inactive). The GI50 (SNB-75) was 30.8 µM (inactive), the GI50 (RPMI-8226) was 9.46 µM (inactive) and the GI50 (U-251) was 22.9 µM (inactive). For the same compound, the GI50 (SF-539) was 45.3 µM (inactive), the GI50 (OVCAR-3) was 18.5 µM (inactive) and the GI50 (TK-10) was 35.5 µM (inactive). The GI50 (SW-620) was 6.81 µM (inactive).
